Measured values from patent US20220064138A1, “MACROLIDE BREFELDIN A ESTER DERIVATIVES AND USE THEREOF” (OCEAN UNIVERSITY OF CHINA, priority 2019, published 2022).
Converted amounts (≈) assume the structure as drawn.

Columns and labels:
Kunming breed mice = experiment: Toxicity test after intraperitoneal administration to mice; assay type: in vivo; conditions: 14 d; for Deaths: high and low doses (BFA effective amount conversion), ip., mice; for Mental condition of the animals after administration / Results of anatomy: abnormality in organs: male, Kunming, mouse, in vivo, ip
Experimental: Objective: Observation of toxic effects of compounds after intraperitoneally administration (ip.) to mice
1) Agents: Compounds disclosed herein were formulated to a suitable concentration.
2) Animals: Kunming breed mice, weight 18-22 g, male. Provided by Jinan Pengyue Laboratory Animal Breeding Co., Ltd. Animal license number: SCXK (Shandong 20140007)
Method: Kunming breed mice, were randomly grouped by weight, 6 mice per group, namely normal control group, BFA high and low dose groups (100 mg/kg and 50 mg/kg, respectively), and high and low dose groups of some compounds disclosed herein (BFA effective amount conversion). […] After 14 d of continuous administration, all the animals were weighed, and the animals were executed to observe whether there were any abnormalities in the organs.

[1] = Solubility test (shaking 24 h at 37° C., HPLC)
Method: Methods: Excess BFA and the compounds disclosed herein were added to 10 mL of three solvents, methanol, acetone and 5% DMSO+95% H2O, respectively, and shaken on a shaker at 37° C. at 100 r/min for 24 h. After 24 h, the samples were centrifuged at 15 000 r/min for 15 min to remove the undissolved compounds. The supernatant was filtered using a 0.45 μm membrane filter. The supernatant was appropriately diluted with methanol and contents of the compounds were determined by HPLC method to calculate the solubility.

[2] = tested on: human leukemia K562 cells; experiment: Cell proliferation assay (CCK-8); assay type: cell-based; conditions: K562, 72 h
Description: (§1) CCK-8 method: The CCK-8 method is a highly sensitive, non-radioactive colorimetric assay for the determination of the number of viable cells in cell proliferation or cytotoxicity assays. The orange formazan dye produced by the bioreduction of CCK-8 by intracellular dehydrogenase is soluble in the cell culture medium, and the amount of formazan dye produced is proportional to the number of living cells. The kit used in this method is the tetrazolium salt-WST-8 (2-(2-methoxy-4-nitrophenyl)-3-(4-nitrophenyl)-5-(2,4-disulfophenyl)-2H-tetrazolium monosodium salt) developed by Dojindo Chemical Research Institute (Dojindo), which is capable of being reduced to a water-soluble formazan dye in the presence of the electronic carrier 1-Methoxy PMS.
(§2) Human cervical cancer Hela cells, pancreatic cancer PANC-1 cells, esophageal cancer Eca-109 cells, human leukemia K562 cells, human lung cancer A549 cells, human liver cancer HepG2 cells, human gastric cancer MKN-45 cells, human breast cancer MCF7 cells were cultured in DMEM medium containing 10% FBS (fetal bovine serum), 100 U/mL penicillin and 100 μg/ml streptomycin. Hepatocellular carcinoma cells Bel-7402 were cultured in RPMI-1640 medium containing 10% FBS (fetal bovine serum), 100 U/ml penicillin and 100 μg/ml streptomycin. All cells were placed in a cell culture incubator at 37° C. with 5% CO2. Cells fluid was changed every 3-5 days, and after 80% cell fusion, trypsin digestion and passaging were performed to keep the cells in good logarithmic growth phase.
(§3) All the samples to be tested were dissolved in DMSO.
(§4) Cells in logarithmic growth phase were inoculated in 96-well plates with 5000 cells/well respectively, and after 24 h of incubation, samples were added (final concentrations as shown in the table), and biplicate wells were set up for each sample. The amount of solvent of DMSO was not higher than 2‰. After 72 h, 10 μL of CCK-8 solution was added to each well and incubated for 1.5˜3 h at 37° C. The OD value at 450 nm was measured on an plate reader.
(§5) Inhibition rate (%)=(1−[(OD450 dosed well−OD450 blank well)/(OD450 control well−OD450 blank well)])×100%
(§6) The fitted IC50 values were calculated using the log (inhibitor) vs. response-Variable slop analysis method in GraphPad Prism software.

[3] = tested on: esophageal cancer Eca-109 cells; experiment: Cell proliferation assay (CCK-8); assay type: cell-based; conditions: Homo sapiens, Eca-109, 72 h
Description: as §1, §2, §3, §4, §5, §6

[4] = tested on: human breast cancer MCF7 cells; experiment: Cell proliferation assay (CCK-8); assay type: cell-based; conditions: MCF7, 72 h
Description: as §1, §2, §3, §4, §5, §6

[5] = tested on: human liver cancer HepG2 cells; experiment: Cell proliferation assay (CCK-8); assay type: cell-based; conditions: HepG2, 72 h
Description: as §1, §2, §3, §4, §5, §6

[6] = tested on: human lung cancer A549 cells; experiment: Cell proliferation assay (CCK-8); assay type: cell-based; conditions: A549, 72 h
Description: as §1, §2, §3, §4, §5, §6

[7] = tested on: pancreatic cancer PANC-1 cells; experiment: Cell proliferation assay (CCK-8); assay type: cell-based; conditions: Homo sapiens, PANC-1, 72 h
Description: as §1, §2, §3, §4, §5, §6

[8] = tested on: human gastric cancer MKN-45 cells; experiment: Cell proliferation assay (CCK-8); assay type: cell-based; conditions: MKN-45, 72 h
Description: as §1, §2, §3, §4, §5, §6

[9] = tested on: Human cervical cancer Hela cells; experiment: Cell proliferation assay (CCK-8); assay type: cell-based; conditions: 72 h
Description: as §1, §2, §3, §4, §5, §6

Structure (SMILES)	Deaths (Kunming breed mice)	Mental condition of the animals after administration (Kunming breed mice)	Results of anatomy: abnormality in organs (Kunming breed mice)	solubility at 24 h ([1]; 5% DMSO + 95% H2O) [mg/mL]	solubility at 24 h ([1]; acetone) [mg/mL]	solubility at 24 h ([1]; methanol) [mg/mL]	IC50 [2] [nM]	IC50 [3] [nM]	IC50 [4] [nM]	IC50 [5] [nM]	IC50 [6] [nM]	IC50 [7] [nM]	IC50 [8] [nM]	IC50 [9] [nM]
C[C@H]1CCC/C=C/[C@@H]2C[C@H](OC(=O)/C=C/c3cccc(F)c3)C[C@H]2[C@H](O)/C=C/C(=O)O1 [Compound 1a, 7-O-(3-fluorocinnamic acid)acyl BFA]	no deaths	good mental condition	no significant abnormality in all organs	0.33 ± 0.13	21.9 ± 1.53 (≈ 51.1 mM)	21.3 ± 1.52 (≈ 49.8 mM)	100 to 1000	1000 to 10000	100 to 1000	100 to 1000	100 to 1000	100 to 1000	100 to 1000	1000 to 10000
C[C@H]1CCC/C=C/[C@@H]2C[C@H](O)C[C@H]2[C@H](OC(=O)/C=C/c2cccc(F)c2)/C=C/C(=O)O1 [Compound 1b, 4-O-(3-fluorocinnamic acid)acyl BFA]	no deaths	good mental condition	no significant abnormality in all organs	0.32 ± 0.05	21 ± 1.42 (≈ 49.1 mM)	21.1 ± 1.32 (≈ 49.3 mM)	100 to 1000	100 to 1000	100 to 1000	100 to 1000	100 to 1000	100 to 1000	100 to 1000	100 to 1000
C[C@H]1CCC/C=C/[C@@H]2C[C@H](OC(=O)/C=C/c3ccncc3)C[C@H]2[C@H](O)/C=C/C(=O)O1 [Compound 14a, 7-O-(3-(pyridine-4-yl)acrylic acid)acyl BFA]	–	–	–	–	–	–	100 to 1000	1000 to 10000	100 to 1000	< 100	100 to 1000	< 100	100 to 1000	100 to 1000
C[C@H]1CCC/C=C/[C@@H]2C[C@H](O)C[C@H]2[C@H](OC(=O)/C=C/c2ccncc2)/C=C/C(=O)O1 [Compound 14b]	–	–	–	–	–	–	100 to 1000	1000 to 10000	100 to 1000	< 100	100 to 1000	< 100	100 to 1000	100 to 1000
C[C@H]1CCC/C=C/[C@@H]2C[C@H](OC(=O)/C=C/c3ccncc3)C[C@H]2[C@H](OC(=O)/C=C/c2ccncc2)/C=C/C(=O)O1 [Compound 14c]	–	–	–	–	–	–	100 to 1000	1000 to 10000	1000 to 10000	100 to 1000	100 to 1000	1000 to 10000	100 to 1000	1000 to 10000
C[C@H]1CCC/C=C/[C@@H]2C[C@H](OC(=O)/C=C/c3ccccn3)C[C@H]2[C@H](O)/C=C/C(=O)O1 [Compound 15a, 7-O-(3-(pyridine-2-yl)acrylic acid)acyl BFA]	–	–	–	–	–	–	100 to 1000	1000 to 10000	100 to 1000	< 100	100 to 1000	< 100	100 to 1000	100 to 1000
C[C@H]1CCC/C=C/[C@@H]2C[C@H](O)C[C@H]2[C@H](OC(=O)/C=C/c2ccccn2)/C=C/C(=O)O1 [Compound 15b]	–	–	–	–	–	–	100 to 1000	100 to 1000	100 to 1000	< 100	100 to 1000	< 100	100 to 1000	100 to 1000
C[C@H]1CCC/C=C/[C@@H]2C[C@H](OC(=O)/C=C/c3ccccn3)C[C@H]2[C@H](OC(=O)/C=C/c2ccccn2)/C=C/C(=O)O1 [Compound 15c]	–	–	–	–	–	–	100 to 1000	1000 to 10000	100 to 1000	100 to 1000	100 to 1000	100 to 1000	1000 to 10000	1000 to 10000
C[C@H]1CCC/C=C/[C@@H]2C[C@H](O)C[C@H]2[C@H](OC(=O)/C=C/c2cccnc2)/C=C/C(=O)O1 [Compound 16b]	no deaths	good mental condition	no significant abnormality in all organs	–	–	–	100 to 1000	100 to 1000	100 to 1000	< 100	100 to 1000	< 100	100 to 1000	100 to 1000
C[C@H]1CCC/C=C/[C@@H]2C[C@H](OC(=O)/C=C/c3cccnc3)C[C@H]2[C@H](OC(=O)/C=C/c2cccnc2)/C=C/C(=O)O1 [Compound 16c]	no deaths	good mental condition	no significant abnormality in all organs	–	–	–	100 to 1000	1000 to 10000	1000 to 10000	100 to 1000	100 to 1000	100 to 1000	1000 to 10000	1000 to 10000
C[C@H]1CCC/C=C/[C@@H]2C[C@H](OC(=O)/C=C/c3cnc4ccccc4c3)C[C@H]2[C@H](O)/C=C/C(=O)O1 [Compound 17a, 7-O-(3-(quinoline-3-yl)acrylic acid)acyl BFA]	–	–	–	–	–	–	100 to 1000	100 to 1000	100 to 1000	< 100	100 to 1000	< 100	100 to 1000	100 to 1000
C[C@H]1CCC/C=C/[C@@H]2C[C@H](O)C[C@H]2[C@H](OC(=O)/C=C/c2cnc3ccccc3c2)/C=C/C(=O)O1 [Compound 17b]	–	–	–	–	–	–	100 to 1000	100 to 1000	100 to 1000	< 100	100 to 1000	< 100	100 to 1000	100 to 1000
